What all share (assay type): functional
One experiment has as its system Escherichia coli. Description: Antibacterial activity against Escherichia coli ATCC 23556 after 24 hrs by serial dilution method. The conditions noted are these: ATCC 23556, 24 h.
A further experiment deals with Staphylococcus aureus. The experiment in a line: Antibacterial activity against Staphylococcus aureus ATCC 25923 after 24 hrs by serial dilution method. To be noted: ATCC 25923, 24 h.
Another experiment has as its system Pseudomonas aeruginosa. The experiment in a line: Antibacterial activity against Pseudomonas aeruginosa ATCC 10145 after 24 hrs by serial dilution method. To be noted: ATCC 10145, 24 h.
The test system of another experiment is Candida albicans. Description: Antifungal activity against Candida albicans after 48 hrs by serial dilution method.
The next experiment deals with Nakaseomyces glabratus. Description: Antifungal activity against Candida glabrata after 48 hrs by serial dilution method.
Another experiment relates to Bacillus subtilis. The experiment in a line: Antibacterial activity against Bacillus subtilis ATCC 6633 after 24 hrs by serial dilution method. To be noted: ATCC 6633, 24 h.
Another experiment relates to Pichia kudriavzevii. Description: Antifungal activity against Candida krusei ATCC 6258 after 48 hrs by serial dilution method. The conditions noted are these: ATCC 6258, 48 h.

Our source for the MIC values is ChEMBL document CHEMBL1147878, “Synthesis and in vitro antimicrobial activity of new 2-[p-substituted-benzyl]-5-[substituted-carbonylamino]benzoxazoles” (2007).

Molecules are shown by their SMILES. Converted amounts (≈) assume the structure as drawn.

`O=C(Cc1ccc([N+](=O)[O-])cc1)Nc1ccc2oc(Cc3ccc(Cl)cc3)nc2c1`: the MIC with Escherichia coli was found to be 50 µg/mL (≈ 119 µM); with Staphylococcus aureus it was 50 µg/mL (≈ 119 µM); against Pseudomonas aeruginosa, 25 µg/mL (≈ 59.3 µM); against Candida albicans, 12.5 µg/mL (≈ 29.6 µM); with Nakaseomyces glabratus, 25 µg/mL (≈ 59.3 µM); with Bacillus subtilis it was 50 µg/mL (≈ 119 µM). The MIC against Pichia kudriavzevii is 25 µg/mL (≈ 59.3 µM).
Regarding `Cc1ccc(CC(=O)Nc2ccc3oc(Cc4ccc(Cl)cc4)nc3c2)cc1`, the MIC in the experiment with Escherichia coli came to 50 µg/mL (≈ 128 µM); against Staphylococcus aureus it was 100 µg/mL (≈ 256 µM); in the experiment with Pseudomonas aeruginosa, 25 µg/mL (≈ 64 µM); against Candida albicans, 12.5 µg/mL (≈ 32 µM); in the experiment on Nakaseomyces glabratus it was 12.5 µg/mL (≈ 32 µM); against Bacillus subtilis it was 25 µg/mL (≈ 64 µM). In the experiment on Pichia kudriavzevii, this compound registered an MIC of 12.5 µg/mL (≈ 32 µM).
As to `Cc1ccc(C(=O)Nc2ccc3oc(Cc4ccc(Cl)cc4)nc3c2)cc1C`, the MIC was 50 µg/mL (≈ 128 µM) against Escherichia coli; 12.5 µg/mL (≈ 32 µM) in the experiment on Staphylococcus aureus; 50 µg/mL (≈ 128 µM) in the experiment with Pseudomonas aeruginosa; 100 µg/mL (≈ 256 µM) in the experiment with Candida albicans; 50 µg/mL (≈ 128 µM) in the experiment with Nakaseomyces glabratus; 25 µg/mL (≈ 64 µM) against Bacillus subtilis. In addition, it took 12.5 µg/mL (≈ 32 µM) to inhibit growth against Pichia kudriavzevii (MIC).
Take `O=C(Cc1ccccc1)Nc1ccc2oc(Cc3ccccc3)nc2c1`: the MIC against Escherichia coli came out at 25 µg/mL (≈ 73 µM); in the experiment on Staphylococcus aureus, 25 µg/mL (≈ 73 µM); in the experiment on Pseudomonas aeruginosa, 50 µg/mL (≈ 146 µM); with Candida albicans, 12.5 µg/mL (≈ 36.5 µM); against Nakaseomyces glabratus, 25 µg/mL (≈ 73 µM); against Bacillus subtilis it was 25 µg/mL (≈ 73 µM). The same compound yielded an MIC against Pichia kudriavzevii of 12.5 µg/mL (≈ 36.5 µM).
`O=C(Cc1ccccc1)Nc1ccc2oc(Cc3ccc(Cl)cc3)nc2c1`: the MIC with Escherichia coli is 50 µg/mL (≈ 133 µM); against Staphylococcus aureus, 50 µg/mL (≈ 133 µM); in the experiment on Pseudomonas aeruginosa, 25 µg/mL (≈ 66.3 µM); in the experiment with Candida albicans, 25 µg/mL (≈ 66.3 µM); in the experiment with Nakaseomyces glabratus, 25 µg/mL (≈ 66.3 µM); against Bacillus subtilis, 25 µg/mL (≈ 66.3 µM). In the experiment on Pichia kudriavzevii, this compound returned an MIC of 25 µg/mL (≈ 66.3 µM).
With `O=C(Cc1ccc(Br)cc1)Nc1ccc2oc(Cc3ccc(Cl)cc3)nc2c1`, the MIC worked out at 50 µg/mL (≈ 110 µM) in the experiment with Escherichia coli; 50 µg/mL (≈ 110 µM) with Staphylococcus aureus; 50 µg/mL (≈ 110 µM) against Pseudomonas aeruginosa; 12.5 µg/mL (≈ 27.4 µM) with Candida albicans; 50 µg/mL (≈ 110 µM) in the experiment with Nakaseomyces glabratus; 25 µg/mL (≈ 54.9 µM) in the experiment on Bacillus subtilis. Besides, in the experiment with Pichia kudriavzevii, the MIC came to 25 µg/mL (≈ 54.9 µM).
Take `CCc1ccc(C(=O)Nc2ccc3oc(Cc4ccccc4)nc3c2)cc1`: the MIC with Escherichia coli was 50 µg/mL (≈ 140 µM); with Staphylococcus aureus, 50 µg/mL (≈ 140 µM); against Pseudomonas aeruginosa it was 50 µg/mL (≈ 140 µM); in the experiment with Candida albicans it was 25 µg/mL (≈ 70.1 µM); with Nakaseomyces glabratus it was 12.5 µg/mL (≈ 35.1 µM); against Bacillus subtilis it was 50 µg/mL (≈ 140 µM). Besides, it took 25 µg/mL (≈ 70.1 µM) to inhibit growth against Pichia kudriavzevii (MIC).
With `Cc1ccc(C(=O)Nc2ccc3oc(Cc4ccccc4)nc3c2)cc1C`, the MIC in the experiment with Escherichia coli turned out to be 50 µg/mL (≈ 140 µM); against Staphylococcus aureus, 50 µg/mL (≈ 140 µM); in the experiment with Pseudomonas aeruginosa, 25 µg/mL (≈ 70.1 µM); in the experiment on Candida albicans it was 25 µg/mL (≈ 70.1 µM); against Nakaseomyces glabratus it was 50 µg/mL (≈ 140 µM); against Bacillus subtilis, 50 µg/mL (≈ 140 µM). The compound further gave an MIC against Pichia kudriavzevii of 50 µg/mL (≈ 140 µM).
Regarding `Cc1ccc(CC(=O)Nc2ccc3oc(Cc4ccccc4)nc3c2)cc1`, the MIC is 25 µg/mL (≈ 70.1 µM) in the experiment on Escherichia coli; 25 µg/mL (≈ 70.1 µM) with Staphylococcus aureus; 25 µg/mL (≈ 70.1 µM) with Pseudomonas aeruginosa; 25 µg/mL (≈ 70.1 µM) in the experiment with Candida albicans; 12.5 µg/mL (≈ 35.1 µM) with Nakaseomyces glabratus; 25 µg/mL (≈ 70.1 µM) in the experiment with Bacillus subtilis. Further, the MIC against Pichia kudriavzevii was determined as 6.25 µg/mL (≈ 17.5 µM).
Turning to `O=C(Cc1ccc(Cl)cc1)Nc1ccc2oc(Cc3ccc(Cl)cc3)nc2c1`, the MIC is 50 µg/mL (≈ 122 µM) against Escherichia coli; 50 µg/mL (≈ 122 µM) with Staphylococcus aureus; 25 µg/mL (≈ 60.8 µM) with Pseudomonas aeruginosa; 50 µg/mL (≈ 122 µM) in the experiment with Candida albicans; 12.5 µg/mL (≈ 30.4 µM) with Nakaseomyces glabratus; 25 µg/mL (≈ 60.8 µM) in the experiment with Bacillus subtilis. The minimum inhibitory concentration (MIC) with Pichia kudriavzevii was 6.25 µg/mL (≈ 15.2 µM).
